From patent publication US7199143B2, “Chemical compounds” (AstraZeneca AB, priority 2002, dated 2007)
Values after ≈ are worked out from the molar mass of the structure shown.

Columns and labels:
Haemophilus influenzae = experiment: MIC, fastidious Gram negative organisms, Mueller-Hinton broth; type: cell-based; conditions: Mueller-Hinton broth with hemin and NAD, 24 hours, 5×10^4 CFU/well
Procedure: (§1) The following results were obtained on a standard in-vitro test system. The activity is described in terms of the minimum inhibitory concentration (MIC) determined by the agar-dilution technique with an inoculum size of 10^4 CFU/spot. Typically, compounds are active in the range 0.01 to 256 μg/ml.
(§2) Streptococci and enterococci were tested on agar supplemented with 5% defibrinated horse blood, an inoculum of 10^4 CFU/spot and an incubation temperature of 37° C. in an atmosphere of 5% carbon dioxide for 48 hours—blood is required for the growth of some of the test organisms. Fastidious Gram negative organisms were tested in Mueller-Hinton broth, supplemented with hemin and NAD, grown aerobically for 24 hours at 37° C., and with an innoculum of 5×10^4 CFU/well.

Moraxella catarrhalis = experiment: as above; type: cell-based; conditions: Mueller-Hinton broth with hemin and NAD, 24 hours, 5×10^4 CFU/well
Procedure: as §1, §2

Streptococcus pyogenes = experiment: MIC, agar with 5% defibrinated horse blood; type: cell-based; conditions: agar + 5% horse blood, 5% carbon dioxide, 48 hours
Procedure: as §1, §2

Streptococcus pneumoniae = experiment: MIC, agar with 5% defibrinated horse blood; type: cell-based; conditions: agar + 5% horse blood, 5% carbon dioxide, 48 hours
Procedure: as §1, §2

[1] = test system: Staphylococcus aureus MRQR (methicillin resistant and quinolone resistant); experiment: MIC, agar-dilution, staphylococci; type: cell-based; conditions: 10^4 CFU/spot, 37° C., 24 hours
Procedure: as §1
(§3) Staphylococci were tested on agar, using an inoculum of 10^4 CFU/spot and an incubation temperature of 37° C. for 24 hours—standard test conditions for the expression of methicillin resistance.

[2] = test system: Staphylococcus aureus MSQS (methicillin sensitive and quinolone sensitive); experiment: MIC, agar-dilution, staphylococci; type: cell-based; conditions: 10^4 CFU/spot, 37° C., 24 hours
Procedure: as §1, §3

MAO-A = molecular target: T1, MAO-A (Homo sapiens, UniProt P21397); experiment: MAO-A standard in-vitro assay, human liver enzyme expressed in yeast; type: biochemical
T1 construct: made in house; host or cells: yeast
T1 sequence (P21397 1-527): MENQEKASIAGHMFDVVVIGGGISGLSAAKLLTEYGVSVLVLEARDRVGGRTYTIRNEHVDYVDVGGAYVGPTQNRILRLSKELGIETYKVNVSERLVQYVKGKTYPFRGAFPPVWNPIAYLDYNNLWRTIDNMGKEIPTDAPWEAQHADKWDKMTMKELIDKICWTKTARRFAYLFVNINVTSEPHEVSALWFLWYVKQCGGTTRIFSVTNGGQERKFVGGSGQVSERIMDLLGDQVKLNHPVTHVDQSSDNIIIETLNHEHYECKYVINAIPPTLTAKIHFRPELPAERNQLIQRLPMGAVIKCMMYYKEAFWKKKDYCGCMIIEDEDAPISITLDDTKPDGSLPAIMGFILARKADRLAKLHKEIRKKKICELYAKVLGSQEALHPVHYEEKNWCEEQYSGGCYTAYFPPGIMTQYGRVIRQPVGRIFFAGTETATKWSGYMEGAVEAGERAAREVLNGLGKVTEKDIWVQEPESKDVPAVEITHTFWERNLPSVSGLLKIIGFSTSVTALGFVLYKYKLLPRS
Procedure: The activity of the compounds of the invention against MAO-A was tested using a standard in-vitro assay based on human liver enzyme expressed in yeast as described in Biochem. Biophys. Res. Commun. 1991, 181, 1084–1088.

With `[N-]=[N+]=NCc1cn(C[C@H]2CN(c3ccc(C4=CC[S+]([O-])CC4)c(F)c3)C(=O)O2)nn1` (stereo partly drawn) [Example 3, (5R)-3-[4-(1(R,S)-Oxo-3,6-dihydro-2H-thiopyran-4-yl)-3-fluorophenyl]-5-[(4-azidomethyl)-1,2,3-triazol-1-ylmethyl]oxazolidin-2-one] the MIC (Haemophilus influenzae) was 2 µg/mL (≈ 4.64 µM), the MIC (Moraxella catarrhalis) was 4 µg/mL (≈ 9.27 µM) and the MIC (Streptococcus pyogenes) was 2 µg/mL. For the same compound, the MIC (Streptococcus pneumoniae) was 2 µg/mL, the MIC [1] was 8 µg/mL (≈ 18.5 µM) and the MIC [2] was 4 µg/mL (≈ 9.27 µM). For the same compound, the Ki (MAO-A) was > 410 µM.
